The structures appear in SMILES notation.

This note sets out measurements from ChEMBL document CHEMBL1159318, “Anti-inflammatory and anti-tumor-promoting effects of cucurbitane glycosides from the roots of Bryonia dioica” (J Nat Prod, 2002).

Data set [1] can be described thus: Cytotoxicity against human Raji cells assessed as cell viability at 1000 molar ratio after 48 hrs by trypan blue assay. Conditions: read-out: Activity. Format: cell-based.
Data set [2] has as its system Raji. Kind of data set: Inhibition of TPA-induced EBV-early antigen activation in human Raji cells at 10 molar ratio after 48 hrs relative to TPA; values are per cent of control. The following applies: human gammaherpesvirus 4.
The subject of data set [3] is Raji. Kind of data set: Inhibition of TPA-induced EBV-early antigen activation in human Raji cells at 500 molar ratio after 48 hrs relative to TPA; values are per cent of control. Conditions: human gammaherpesvirus 4.
Data set [4] deals with Raji. Kind of data set: Inhibition of TPA-induced EBV-early antigen activation in human Raji cells at 100 molar ratio after 48 hrs relative to TPA; values are per cent of control. The following applies: human gammaherpesvirus 4.
The test system of data set [5] is Raji. Kind of data set: Inhibition of TPA-induced EBV-early antigen activation in human Raji cells at 1000 molar ratio after 48 hrs relative to TPA; values are per cent of control. Conditions: human gammaherpesvirus 4.
Data set [6] deals with Mus musculus. Kind of data set: Antiinflammatory activity against ICR mouse assessed as inhibition of TPA-induced ear edema compound administered topically preincubated 30 mins before TPA challenge. The format is functional.
In data set [7] the test system is Mus musculus. Kind of data set: Antiinflammatory activity against ICR mouse assessed as inhibition ratio of TPA-induced ear edema at 1 mg/ear, topically preincubated 30 mins before TPA challenge relative to TPA. The format is functional. More on the design: scale not given: the % may be the effect or the level left.

As for `C[C@H](CC[C@@H](O)C(C)(C)O)[C@H]1CC[C@@]2(C)[C@@H]3C[C@@H]4O[C@]45[C@@H](CC[C@H](O[C@@H]4O[C@H](CO)[C@@H](O)[C@H](O)[C@H]4O)C5(C)C)[C@]3(C)C(=O)C[C@]12C` [5ALPHA,6ALPHA-EPOXYCABENOSIDE D], the viability at 48 h, 1000 molar ratio in data set [1] came out at 60%. For the same compound, the level, % of control was 95.3% with Raji [2], 28.6% with Raji [3], 70% in the data set on Raji [4] and 0% in the data set on Raji [5].
Consider `C[C@H](CCC(=O)C(C)(C)O)[C@H]1CC[C@@]2(C)[C@@H]3CC=C4[C@@H](CC[C@H](O[C@@H]5O[C@H](CO)[C@@H](O)[C@H](O)[C@H]5O)C4(C)C)[C@]3(C)C(=O)C[C@]12C` [BRYONIOSIDE F], for which the viability at 48 h, 1000 molar ratio in data set [1] was 60%. The level, % of control with Raji [2] turned out to be 97.6%; in the data set on Raji [3], 29.2%; in the data set with Raji [4], 71.4%; in the data set on Raji [5], 0%.
On to `O=c1c(O)c(-c2ccc(O)c(O)c2)oc2cc(O)cc(O)c12` [QUERCETIN], for which the ID50 in the data set with Mus musculus [6] is 1.6 mg. In the data set on Mus musculus [7], the Activity was found to be 40%.
On the same counts, the results for `COc1ccc2c(c1)c(CC(=O)O)c(C)n2C(=O)c1ccc(Cl)cc1` [INDOMETHACIN] are 0.3 mg and 96%.
Consider `C[C@H](CCC(=O)C(C)(C)O)[C@H]1CC[C@@]2(C)[C@@H]3CC=C4[C@@H](CC[C@H](O)C4(C)C)[C@]3(C)C(=O)C[C@]12C` [BRYOSIGENIN], for which the viability at 48 h, 1000 molar ratio in data set [1] came to 70%. Besides, the level, % of control was determined as 92.7% with Raji [2], 28.9% with Raji [3], 73.5% in the data set on Raji [4] and 0% in the data set with Raji [5].
`C[C@H](C(O)CC(O)C(C)(C)O[C@@H]1O[C@H](CO)[C@@H](O)[C@H](O)[C@H]1O)[C@H]1CC[C@@]2(C)[C@@H]3CC=C4[C@@H](CC[C@H](O)C4(C)C)[C@]3(C)C(=O)C[C@]12C` (stereo not given in full) [BRYONIOSIDE E]: in data set [1], the viability at 48 h, 1000 molar ratio came out at 60%. For the same compound, the ID50 in the data set with Mus musculus [6] is listed as 0.2 mg. Also, the Activity in the data set on Mus musculus [7] is on record as 94%. For the same compound, the level, % of control was 100% with Raji [2], 37% with Raji [3], 77.2% in the data set with Raji [4] and 11.6% with Raji [5].
For the compound `C[C@H](CCC(=O)C(C)(C)O)[C@H]1CC[C@@]2(C)[C@@H]3CC=C4[C@@H](CC[C@H](O[C@@H]5O[C@H](CO)[C@@H](O)[C@H](O)[C@H]5O[C@@H]5O[C@@H](C)[C@H](O)[C@@H](O)[C@H]5O)C4(C)C)[C@]3(C)C(=O)C[C@]12C` [BRYONIOSIDE G], the viability at 48 h, 1000 molar ratio in data set [1] amounted to 60%. Further, in the data set with Mus musculus [6], the ID50 was determined as 0.2 mg. Also, the Activity in the data set on Mus musculus [7] is reported as 90%. Moreover, the level, % of control with Raji [2] was 100%; in the data set on Raji [3], 30.6%; with Raji [4] it was 74.2%; with Raji [5], 0%.
For the compound `C[C@H](CC[C@@H](O)C(C)(C)O)[C@H]1CC[C@@]2(C)[C@@H]3CC=C4[C@@H](CC[C@H](O[C@@H]5O[C@H](CO)[C@@H](O)[C@H](O)[C@H]5O[C@@H]5O[C@@H](C)[C@H](O)[C@@H](O)[C@H]5O)C4(C)C)[C@]3(C)C(=O)C[C@]12C` [BRYONIOSIDE B], the viability at 48 h, 1000 molar ratio in data set [1] was determined as 60%. In the data set with Mus musculus [6], the ID50 is listed as 0.2 mg. In addition, the Activity with Mus musculus [7] is recorded as 94%. Also, the level, % of control with Raji [2] was 97.4%; in the data set with Raji [3] it was 29.9%; in the data set on Raji [4] it was 72.7%; in the data set on Raji [5] it was 0%.
Turning to `CC1=C(/C=C/C(C)=C/C=C/C(C)=C/C=C/C=C(C)/C=C/C=C(C)/C=C/C2=C(C)CCCC2(C)C)C(C)(C)CCC1`, the level, % of control with Raji [2] is 100%; in the data set on Raji [3], 34.2%; in the data set on Raji [4] it was 82.1%; with Raji [5], 8.6%.
With `C[C@H](CC[C@@H](O)C(C)(C)O[C@@H]1O[C@H](CO)[C@@H](O)[C@H](O)[C@H]1O)[C@H]1CC[C@@]2(C)[C@@H]3CC=C4[C@@H](CC[C@H](O)C4(C)C)[C@]3(C)C(=O)C[C@]12C` [BRYONIOSIDE A], the viability at 48 h, 1000 molar ratio in data set [1] came to 60%. Also, the level, % of control was 100% with Raji [2], 30.4% with Raji [3], 75.1% in the data set with Raji [4] and 3.4% in the data set on Raji [5].
For `CC(=O)O[C@@H]1[C@@H](O)[C@@H](O)[C@H](O[C@H]2[C@H](O[C@H]3CC[C@@H]4C(=CC[C@@H]5[C@@]4(C)C(=O)C[C@]4(C)[C@@H]([C@H](C)CC[C@@H](O)C(C)(C)O)CC[C@@]54C)C3(C)C)O[C@H](CO)[C@@H](O)[C@@H]2O)O[C@H]1C` [BRYONIOSIDE C], the viability at 48 h, 1000 molar ratio in data set [1] came to 60%. Moreover, the ID50 in the data set on Mus musculus [6] is reported as 0.3 mg. Further, the Activity in the data set on Mus musculus [7] was 83%. For the same compound, the level, % of control in the data set with Raji [2] amounted to 100%; with Raji [3], 30.2%; in the data set with Raji [4], 73.5%; in the data set on Raji [5] it was 0%.
Consider `C[C@H](CC[C@@H](O)C(C)(C)O)[C@H]1CC[C@@]2(C)[C@@H]3CC=C4[C@@H](CC[C@H](O)C4(C)C)[C@]3(C)C(=O)C[C@]12C` [BRYODULCOSIGENIN], for which the viability at 48 h, 1000 molar ratio in data set [1] was 70%. Further, the level, % of control in the data set on Raji [2] came out at 88.9%; in the data set on Raji [3] it was 23.6%; with Raji [4], 69.3%; with Raji [5], 0%.
For the compound `C[C@H](CC[C@@H](O)C(C)(C)O)[C@H]1CC[C@@]2(C)[C@@H]3CC=C4[C@@H](CC[C@H](O[C@@H]5O[C@H](CO)[C@@H](O)[C@H](O)[C@H]5O)C4(C)C)[C@]3(C)C(=O)C[C@]12C` [CABENOSIDE D], in data set [1], the viability at 48 h, 1000 molar ratio worked out at 60%. Moreover, the ID50 in the data set on Mus musculus [6] came out at 0.6 mg. In addition, in the data set with Mus musculus [7], the Activity was found to be 66%. In addition, the level, % of control with Raji [2] turned out to be 94.1%; in the data set on Raji [3], 26.1%; in the data set on Raji [4], 69.3%; with Raji [5] it was 0%.
For the compound `CC(C)(O)CCC(=O)[C@@](C)(O)[C@H]1[C@H](O)C[C@@]2(C)[C@@H]3CC=C4[C@@H](C=C(O[C@@H]5O[C@H](CO)[C@@H](O)[C@H](O)[C@H]5O)C(=O)C4(C)C)[C@]3(C)C(=O)C[C@]12C` [BRYOAMARIDE], the viability at 48 h, 1000 molar ratio in data set [1] amounted to 60%. The ID50 in the data set on Mus musculus [6] came to 0.7 mg. In addition, the Activity in the data set with Mus musculus [7] was 51%. For the same compound, the level, % of control with Raji [2] was 96%; in the data set on Raji [3] it was 28.7%; with Raji [4], 71.7%; in the data set on Raji [5], 0%.
